The values below come from patent publication US12558430B2, “Dual amylin and calcitonin receptor agonists and uses thereof” (Eli Lilly and Company, priority 2020, dated 2026).

One assay has as its system DIO male Long Evans rats. As to the kind of experiment: DIO rats: Compound II in combination with other incretin compounds. The assay is classed as in vivo, rat. As to conditions: mean ± SEM; for Cumulative Food Intake: 14-day treatment period; for Body Weight Change: Day −1 to Day 14. How it is done: This study is conducted to investigate the effect of Compound II for diabetes and/or obesity conditions in DIO rats when administered in combination with other incretin compounds, including a GLP-1 agonist (Compound III), oxyntomodulin analog (Compound IV), and a triagonist of glucagon, GLP-1, and GIP (Compound V). Diet-induced obese (DIO) male Long Evans (Envigo) rats, maintained on a calorie rich diet since arrival at Lilly (TD95217; Teklad, Madison, Wis.), are used in the following studies. Animals are individually housed in a temperature-controlled (24° C.) facility with 12-hour light/dark cycle (lights on 2200) and free access to food (TD95217) and water.
The rats are randomized according to their body weight, so that each experimental group of animals would have similar body weight. The body weights range from 529 to 823 grams.
Each group contains five rats. Vehicle and Compound II (1 nmol/kg) are dissolved in vehicle (40 mM Tris-HCl pH8+0.02% PS80) and are administered by subcutaneous (SC) injection (1 mL/kg) to ad libitum fed DIO rats 30 to 90 minutes prior to the onset of the dark cycle every 3 days for 14 days. SC injections are made on Days 1, 4, 7, 10 and 13. Body weight and food intake are measured daily throughout the study. Absolute changes in body weight are calculated by subtracting the body weight of the same animal prior to the first injection of molecule.
At the end of the study, blood is collected to measure blood glucose and plasma insulin. Blood glucose is measured by AccuChek glucometers (Roche, Indianapolis, Ind.). Insulin is measured by ELISA (MSD, Rockville, Md.).
All data are presented as mean±SEM of 5 animals per group. Statistical analysis is performed using one-way ANOVA, followed by Tukey's multiple comparison test to compare treatment groups to vehicle group or each other. Significant differences are identified at p<0.05.

The next assay concerns the target T1, human CT receptor (Homo sapiens, UniProt P30988).
T1 sequence (P30988 25-474): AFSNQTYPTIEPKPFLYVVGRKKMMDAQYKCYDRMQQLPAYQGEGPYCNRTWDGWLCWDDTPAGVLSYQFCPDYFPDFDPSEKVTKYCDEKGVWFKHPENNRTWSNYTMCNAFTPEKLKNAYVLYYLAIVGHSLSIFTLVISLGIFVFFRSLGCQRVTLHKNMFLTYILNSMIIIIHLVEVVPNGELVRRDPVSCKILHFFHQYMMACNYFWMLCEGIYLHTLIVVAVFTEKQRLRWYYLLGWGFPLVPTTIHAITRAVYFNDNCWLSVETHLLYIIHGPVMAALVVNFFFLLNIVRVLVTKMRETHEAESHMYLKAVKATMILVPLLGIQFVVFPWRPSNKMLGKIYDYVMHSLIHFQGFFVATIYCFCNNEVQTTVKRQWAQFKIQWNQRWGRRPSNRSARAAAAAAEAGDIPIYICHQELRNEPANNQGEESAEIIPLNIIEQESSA
The experiment in a line: hCT cAMP functional assay (HTRF). The assay is classed as cell-based. (In general: Time-resolved FRET reads energy transfer from a long-lived donor to a nearby acceptor.)

The next assay concerns the target human AMY1 receptor (Homo sapiens, UniProt O60894+P30988). As to the kind of experiment: hAMY1 cAMP functional assay (HTRF). The assay is classed as cell-based. On the procedure:
The AMY1 and CT receptors are GPCRs that are functionally coupled to Gαs proteins. Stimulation of these receptors results in an increased production of intracellular cAMP, which can be detected using standard in vitro technologies. Human AMY1 or CT receptors are stably expressed in human urinary bladder cells (UM-UC-3) cells under control of a pcDNA (CALCR) or pCMV piggybac (RAMP1) expression vector. AMY1 cells are cultured in MEM 1X (Corning) supplemented with 10% FBS, 1% antibiotic/antimycotic solution, 1 mM sodium pyruvate, 1X MEM NEAA, 1X GlutaMAX-I, 200 μg/mL hygromycin B, and 0.4 μg/mL puromycin. CT cells are cultured in the same medium except that it lacks the puromycin. Cultured cells are grown to 70% confluency, and then incubated overnight with fresh medium.
On the assay day, 10 μL of assay buffer (phenol red free MEM (Corning, cat #17-305-CV), 0.1% casein, 0.5 mM IBMX, 5 mM HEPES, pH 7.4) is dispensed into each well of white poly-D-lysine coated 384-well plates (Corning cat #354661). […]
The amount of intracellular cAMP is quantitated using HTRF technology (Homogeneous Time Resolved Fluorescence; Cisbio) as per vendor instructions. […] The HTRF signal is immediately detected using an Envision plate reader (Perkin-Elmer) to calculate the ratio of fluorescence at 665 to 620 nm. […]

As a reminder, the EC50 is the concentration that produces a half-maximal response. A higher EC50 goes with a less potent agent.

Starred links: 1 amine or outer side, 2 acyl side, 3 side chain; linkers in the order of their positions; H or OH if unused. Non-standard residues stand in square brackets, D forms with d. Residues, ends and D or L forms follow the SMILES beside them. Groups on a side chain read outwards from the residue. *: point of attachment. C20 diacid = O=C(O)CCCCCCCCCCCCCCCCCCC(=O)*; γGlu = O=C(O)[C@H](CCC(=O)[*:2])N[*:1]; AEEA = NCCOCCOCC(=O)O; Aib = CC(C)(N)C(=O)O

Chain of human AMY1 receptor (O60894 27-148, one chain of several): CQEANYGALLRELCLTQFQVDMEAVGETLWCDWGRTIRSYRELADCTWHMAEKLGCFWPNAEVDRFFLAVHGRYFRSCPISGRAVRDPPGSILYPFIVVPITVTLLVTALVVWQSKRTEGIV
Method for human CT receptor: The AMY1 and CT receptors are GPCRs that are functionally coupled to Gαs proteins. […] Human AMY1 or CT receptors are stably expressed in human urinary bladder cells (UM-UC-3) cells under control of a pcDNA (CALCR) or pCMV piggybac (RAMP1) expression vector. AMY1 cells are cultured in MEM 1X (Corning) supplemented with 10% FBS, 1% antibiotic/antimycotic solution, 1 mM sodium pyruvate, 1X MEM NEAA, 1X GlutaMAX-I, 200 μg/mL hygromycin B, and 0.4 μg/mL puromycin. CT cells are cultured in the same medium except that it lacks the puromycin. Cultured cells are grown to 70% confluency, and then incubated overnight with fresh medium.
Peptides diluted in DMSO are added (200 nL/well) in a 1:3 dilution series using ECHO acoustic liquid handler (Beckman). Cultured cells are detached with TrypLE Express (Gibco), resuspended in assay buffer, and 10 μL containing 1200 cells/well (hCT) or 1500 cells/well (hAMY1) are dispensed into each well. The plates are incubated at room temperature for 1 hour.
The amount of intracellular cAMP is quantitated using HTRF technology (Homogeneous Time Resolved Fluorescence; Cisbio) as per vendor instructions. Briefly, 10 μL cAMP-d2 conjugate and 10 μL anti-cAMP-cryptate conjugate in lysis buffer are incubated with the treated cells at room temperature for 60 min. […]

In the case of “Y-Aib-QGTFTSDYSI-αMeL-LDKK((2-[2-(2-Amino-ethoxy)-ethoxy]-acetyl)-(γGlu)-CO-(CH2)18-CO2H)AQ-Aib-AFIEYLLEGGPSSGAPPPS-NH2 (YXQGTFTSDYSIXLDKKAQXAFIEYLLEGGPSSGAPPPS; Aib, αMeL; lipidated Lys; C-terminal amide; SITE 2 X at position 2 is Aib; SITE 13 X at position 13 is alpha-methyl-Leu; MOD_RES 17 The Lys at position 17 is chemically modified by conjugation of the epsilon amino group of the Lys sidechain with 2-[2-(2-Amino-ethoxy)-ethoxy]-acetyl)-(gamma-Glu)-CO-(CH2)18-CO2H; SITE 20 X at position 20 is Aib; MOD_RES 39 C-terminus is amidated) [Compound V, triagonist of glucagon, GLP-1, and GIP]”, in the assay on DIO male Long Evans rats (3 nmol/kg SC every three days), the “Cumulative Food Intake” value was found to be 157.50 ± 10.63 g and the “Body Weight Change” value was -43.28 ± 2.54 g.

Regarding “H-Aib-QGTFTSDYSKYLDEKKAK((2-[2-(2-Amino-ethoxy)-ethoxy]-acetyl)2-(γGlu)-CO-(CH2)18-CO2H)EFVEWLLEGGPSSG-NH2 (H-H[Aib]QGTFTSDYSKYLDEKKAK([AEEA-AEEA-γGlu-C20 diacid])EFVEWLLEGGPSSG-NH2) [Compound IV, oxyntomodulin analog]”, in the assay on DIO male Long Evans rats (10 nmol/kg SC every three days), the “Cumulative Food Intake” value came out at 165.86 ± 7.45 g and the “Body Weight Change” value was -50.24 ± 6.36 g.

Take `CC(=O)N[C@@H](C)C(=O)N[C@@H](CO)C(=O)N[C@@H](Cc1c[nH]cn1)C(=O)N[C@@H](CC(C)C)C(=O)N[C@@H](CO)C(=O)N[C@H](C(=O)N[C@@H](C)C(=O)N[C@H](C(=O)N[C@@H](CC(C)C)C(=O)NCC(=O)N[C@@H](CCCCN)C(=O)N[C@@H](CC(C)C)C(=O)N[C@@H](CO)C(=O)NC(C)(C)C(=O)N[C@@H](CCC(=O)O)C(=O)N[C@@H](CC(C)C)C(=O)N[C@@H](Cc1c[nH]cn1)C(=O)N[C@@H](CCCCN)C(=O)N[C@@H](CC(C)C)C(=O)N[C@@H](CCC(=O)O)C(=O)N[C@@H](CC(=O)O)C(=O)N[C@@H](Cc1ccc(O)cc1)C(=O)N1CCC[C@H]1C(=O)N[C@@H](CCCNC(=N)N)C(=O)N[C@H](C(=O)N[C@@H](CC(=O)O)C(=O)N[C@H](C(=O)NCC(=O)N[C@@H](C)C(=O)N[C@@H](CCC(=O)O)C(=O)N[C@@H](CO)C(=O)N1CCC[C@H]1C(N)=O)C(C)C)[C@@H](C)O)C(C)C)[C@@H](C)O` [Compound I] (Ac-ASHLSTAVLGKLS[Aib]ELHKLEDYPRTDVGAESP-NH2): the EC50 on human CT receptor amounted to 0.0317 ± 0.0058 nM; at human AMY1 receptor it was 0.0493 ± 0.00804 nM.
